ChEMBL document CHEMBL4219245, “Development of piperazine-based hydroxamic acid inhibitors against falcilysin, an essential malarial protease” (Bioorg Med Chem Lett, 2018)

Legend:
[1] = target: T1, Falcilysin (Plasmodium falciparum (isolate 3D7), UniProt Q76NL8); test: Inhibition of Plasmodium falciparum 3D7 FLN (55 to 1193 residues) expressed in Escherichia coli BL21 using Dabcyl-HKRHSFRMRG-EDANS as substrate preincubated for 5 mins followed by substrate addition measured for 10 mins by fluorescence assay
T1 sequence (Q76NL8 whole entry): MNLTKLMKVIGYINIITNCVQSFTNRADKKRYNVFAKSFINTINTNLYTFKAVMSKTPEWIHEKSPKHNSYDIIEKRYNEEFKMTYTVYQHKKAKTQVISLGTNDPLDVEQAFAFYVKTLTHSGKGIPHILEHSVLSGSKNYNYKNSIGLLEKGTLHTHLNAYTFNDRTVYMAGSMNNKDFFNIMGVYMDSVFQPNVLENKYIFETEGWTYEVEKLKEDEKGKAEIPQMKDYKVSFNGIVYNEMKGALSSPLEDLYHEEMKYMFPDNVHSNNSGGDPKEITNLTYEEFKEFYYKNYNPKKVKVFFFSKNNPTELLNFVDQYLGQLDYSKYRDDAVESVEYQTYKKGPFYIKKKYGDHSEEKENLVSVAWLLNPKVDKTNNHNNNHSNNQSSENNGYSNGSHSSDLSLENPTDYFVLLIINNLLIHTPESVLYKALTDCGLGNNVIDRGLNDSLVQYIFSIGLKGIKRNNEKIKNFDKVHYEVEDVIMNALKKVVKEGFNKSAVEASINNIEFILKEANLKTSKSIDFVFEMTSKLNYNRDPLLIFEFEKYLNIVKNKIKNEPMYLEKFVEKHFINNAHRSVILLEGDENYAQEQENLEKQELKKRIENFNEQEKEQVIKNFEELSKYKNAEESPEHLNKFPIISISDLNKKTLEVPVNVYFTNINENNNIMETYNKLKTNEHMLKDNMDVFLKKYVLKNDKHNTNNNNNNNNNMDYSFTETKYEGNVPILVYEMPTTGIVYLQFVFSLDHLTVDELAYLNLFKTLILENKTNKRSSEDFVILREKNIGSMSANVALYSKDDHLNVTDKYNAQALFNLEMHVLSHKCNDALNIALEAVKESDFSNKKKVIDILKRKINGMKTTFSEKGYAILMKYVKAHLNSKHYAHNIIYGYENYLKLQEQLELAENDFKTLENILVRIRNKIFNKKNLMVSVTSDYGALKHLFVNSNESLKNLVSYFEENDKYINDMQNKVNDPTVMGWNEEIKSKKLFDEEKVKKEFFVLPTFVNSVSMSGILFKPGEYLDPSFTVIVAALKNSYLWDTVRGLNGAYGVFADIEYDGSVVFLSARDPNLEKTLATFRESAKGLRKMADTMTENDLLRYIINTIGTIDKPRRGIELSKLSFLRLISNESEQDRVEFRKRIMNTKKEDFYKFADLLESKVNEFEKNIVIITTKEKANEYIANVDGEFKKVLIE

[2] = system: Plasmodium falciparum; test: Parasiticidal activity against ring stage Plasmodium falciparum 3D7 infected in human RBC after 70 to 80 hrs by acridine orange staining-based assay; type: functional, organism-based; conditions: 3D7, Erythrocyte

SMILES	IC50 [1] [µM]	IC50 [2] [µM]
O=C(NO)C1CN(C(=O)c2ccc(Cl)c(Cl)c2)CCN1S(=O)(=O)c1ccccc1 (configuration not stated)	5	> 10
O=C(NO)C1CN(C(=O)c2ccc(-c3ccccc3)cc2)CCN1S(=O)(=O)c1ccccc1 (configuration not stated)	8	> 10
COc1ccc(S(=O)(=O)N2CCN(C(=O)c3ccc(-c4ccccc4)cc3)CC2C(=O)NO)cc1 (configuration not stated)	10	5
COc1ccc(S(=O)(=O)N2CCN(C(=O)c3ccccc3Br)CC2C(=O)NO)cc1 (configuration not stated)	8	> 10
COc1ccc(S(=O)(=O)N2CCN(S(=O)(=O)c3ccccc3)CC2C(=O)NO)cc1 (configuration not stated)	> 50	> 10
COc1ccc(S(=O)(=O)N2CCN(C(=O)c3ccc(Cl)c(Cl)c3)CC2C(=O)NO)cc1 (configuration not stated)	6	> 10
O=C(NO)C1CN(C(=O)c2ccc(F)cc2)CCN1S(=O)(=O)c1ccc(Br)cc1 (configuration not stated)	16	> 10
CCC(=O)N1CCN(S(=O)(=O)c2ccc(Br)cc2)C(C(=O)NO)C1 (configuration not stated)	> 50	> 10
COc1ccc(S(=O)(=O)N2CCN(C(=O)c3ccccc3)CC2C(=O)NO)cc1 (configuration not stated)	> 50	> 10
O=C(NO)C1CN(C(=O)c2cccc(F)c2)CCN1S(=O)(=O)c1ccc(Br)cc1 (configuration not stated)	31	> 10
O=C(NO)C1CN(C(=O)c2ccccc2)CCN1S(=O)(=O)c1ccc(Br)cc1 (configuration not stated)	35	> 10
COc1ccc(S(=O)(=O)N2CCN(C(=O)c3cccc(Br)c3)CC2C(=O)NO)cc1 (configuration not stated)	10	> 10
O=C(NO)C1CN(C(=O)c2cccc(F)c2)CCN1S(=O)(=O)c1ccccc1 (configuration not stated)	> 50	> 10
CCCCN1CCN(S(=O)(=O)c2ccccc2)C(C(=O)NO)C1 (configuration not stated)	> 50	> 10
O=C(NO)C1CN(C(=O)c2ccc(F)cc2)CCN1S(=O)(=O)c1ccccc1 (configuration not stated)	> 50	> 10
O=C(NO)C1CN(C(=O)c2ccccc2)CCN1S(=O)(=O)c1ccccc1 (configuration not stated)	40	> 10
O=C(NO)C1CN(CCCO)CCN1S(=O)(=O)c1ccccc1 (configuration not stated)	> 50	> 10
O=C(NO)C1CN(C(=O)c2ccc(Br)cc2)CCN1S(=O)(=O)c1ccccc1 (configuration not stated)	13	> 10
COc1ccc(S(=O)(=O)N2CCN(C(=O)c3ccc(Br)cc3)CC2C(=O)NO)cc1 (configuration not stated)	14	> 10
O=C(NO)C1CN(C(=O)c2ccccc2Br)CCN1S(=O)(=O)c1ccccc1 (configuration not stated)	7	> 10
O=C(NO)C1CN(C(=O)c2ccc(-c3ccccc3)cc2)CCN1S(=O)(=O)c1ccc(Br)cc1 (configuration not stated)	1.4	1.4
